The results in this text go back to the Kinase Knowledgebase extract (Sharma et al. 2016).

Values joined by “and” are separate entries in the source; they are usually repeats but may differ in a detail not shown here. Equal values may be shown once.

Chain of EGFR (human) (P00533 whole entry, looked up): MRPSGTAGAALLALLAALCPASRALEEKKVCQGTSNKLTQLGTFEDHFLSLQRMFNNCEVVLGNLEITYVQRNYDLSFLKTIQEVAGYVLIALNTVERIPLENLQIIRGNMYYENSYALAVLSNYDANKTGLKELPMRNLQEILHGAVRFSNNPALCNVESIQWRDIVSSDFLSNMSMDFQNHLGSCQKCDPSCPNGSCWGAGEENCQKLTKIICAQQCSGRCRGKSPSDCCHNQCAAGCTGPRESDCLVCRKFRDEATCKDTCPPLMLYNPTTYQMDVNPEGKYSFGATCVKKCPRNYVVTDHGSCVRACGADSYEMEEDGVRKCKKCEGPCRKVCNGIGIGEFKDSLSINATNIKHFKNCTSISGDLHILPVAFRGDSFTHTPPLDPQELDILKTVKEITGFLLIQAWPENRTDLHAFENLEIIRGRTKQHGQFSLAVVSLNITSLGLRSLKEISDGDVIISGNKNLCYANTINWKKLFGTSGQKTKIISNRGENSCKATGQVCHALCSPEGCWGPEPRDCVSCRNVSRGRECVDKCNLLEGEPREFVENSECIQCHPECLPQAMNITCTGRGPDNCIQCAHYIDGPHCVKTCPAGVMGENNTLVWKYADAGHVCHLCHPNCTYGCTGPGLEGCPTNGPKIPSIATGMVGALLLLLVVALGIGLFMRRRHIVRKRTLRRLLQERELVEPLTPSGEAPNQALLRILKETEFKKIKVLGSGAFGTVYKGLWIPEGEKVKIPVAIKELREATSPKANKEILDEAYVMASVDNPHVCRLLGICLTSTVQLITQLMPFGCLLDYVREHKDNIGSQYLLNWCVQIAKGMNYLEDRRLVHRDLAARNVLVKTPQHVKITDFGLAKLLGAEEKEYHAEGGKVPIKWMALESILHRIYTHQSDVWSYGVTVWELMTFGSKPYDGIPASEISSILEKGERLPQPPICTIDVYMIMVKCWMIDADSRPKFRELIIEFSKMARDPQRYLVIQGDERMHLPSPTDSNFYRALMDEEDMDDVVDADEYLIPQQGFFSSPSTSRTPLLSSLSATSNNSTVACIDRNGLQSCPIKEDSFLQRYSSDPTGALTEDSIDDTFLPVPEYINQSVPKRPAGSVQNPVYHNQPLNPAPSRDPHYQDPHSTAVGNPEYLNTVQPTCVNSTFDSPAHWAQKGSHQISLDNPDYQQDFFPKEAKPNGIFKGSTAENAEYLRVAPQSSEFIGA

The target of the first test is EGFR (Human), P00533 [T790M/L858R].
Chain of EGFR (Human), P00533 [T790M/L858R] (P00533 whole entry T790M/L858R, looked up): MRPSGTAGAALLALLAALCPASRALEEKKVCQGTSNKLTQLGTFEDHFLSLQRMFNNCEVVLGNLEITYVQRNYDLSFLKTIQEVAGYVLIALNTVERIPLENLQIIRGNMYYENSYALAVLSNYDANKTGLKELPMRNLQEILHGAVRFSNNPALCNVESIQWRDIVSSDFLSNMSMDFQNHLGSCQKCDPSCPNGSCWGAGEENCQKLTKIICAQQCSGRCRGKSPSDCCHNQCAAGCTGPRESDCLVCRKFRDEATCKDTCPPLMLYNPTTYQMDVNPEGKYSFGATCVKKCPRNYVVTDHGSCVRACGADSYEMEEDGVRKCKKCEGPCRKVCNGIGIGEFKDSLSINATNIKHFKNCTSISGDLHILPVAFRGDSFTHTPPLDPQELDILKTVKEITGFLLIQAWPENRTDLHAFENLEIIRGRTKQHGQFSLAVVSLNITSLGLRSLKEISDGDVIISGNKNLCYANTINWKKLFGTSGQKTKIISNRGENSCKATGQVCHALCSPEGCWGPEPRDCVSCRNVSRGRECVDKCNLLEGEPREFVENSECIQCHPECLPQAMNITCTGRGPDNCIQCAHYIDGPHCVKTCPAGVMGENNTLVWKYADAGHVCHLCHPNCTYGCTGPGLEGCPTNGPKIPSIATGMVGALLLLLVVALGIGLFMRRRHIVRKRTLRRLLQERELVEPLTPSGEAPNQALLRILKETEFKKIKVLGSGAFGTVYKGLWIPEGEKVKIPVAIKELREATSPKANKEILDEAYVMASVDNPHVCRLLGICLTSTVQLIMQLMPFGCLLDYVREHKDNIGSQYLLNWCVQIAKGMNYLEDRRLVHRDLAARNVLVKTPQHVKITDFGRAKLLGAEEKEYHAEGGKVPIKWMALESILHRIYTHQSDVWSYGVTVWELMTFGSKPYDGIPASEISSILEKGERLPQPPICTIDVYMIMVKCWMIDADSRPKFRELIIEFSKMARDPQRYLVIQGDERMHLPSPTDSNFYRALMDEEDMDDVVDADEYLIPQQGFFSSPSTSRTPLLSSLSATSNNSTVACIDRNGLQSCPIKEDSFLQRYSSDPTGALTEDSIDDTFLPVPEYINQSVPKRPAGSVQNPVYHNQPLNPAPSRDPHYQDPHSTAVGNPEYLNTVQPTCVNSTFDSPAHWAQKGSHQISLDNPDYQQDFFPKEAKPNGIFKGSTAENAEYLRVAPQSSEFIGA
Conditions: not given
As a reminder, the IC50 is the concentration that inhibits the measured activity by half. Higher therefore signals weaker potency in that assay. Take `CN1CCN(C/C=C/C(=O)N2CCc3c(sc4ncnc(N[C@H](CO)c5ccccc5)c34)C2)CC1`: the IC50 was greater than 10 µM.

In turn, `CN(C)C/C=C/C(=O)N1CCc2c(sc3ncnc(NCCO)c23)C1` displayed an IC50 greater than 10 µM.

`CCC(=O)N1CCc2c(sc3ncnc(N[C@H](CO)c4ccccc4)c23)C1`: the concentration for half-maximal inhibition (IC50) was greater than 10 µM.

Compound `CN(C)C/C=C/C(=O)N1CCc2c(sc3ncnc(N[C@@H](CO)c4ccccc4)c23)C1` registered an IC50 greater than 10 µM.

`OC[C@@H](Nc1ncnc2sc3c(c12)CCCC3)c1ccccc1` showed a concentration for half-maximal inhibition (IC50) greater than 10 µM.

In the case of `O=C(/C=C/c1ccccc1)N1CCc2c(sc3ncnc(N[C@H](CO)c4ccccc4)c23)C1`, the half-inhibitory concentration (IC50) was greater than 10 µM.

The compound `c1ccc(CNc2ncnc3sc4c(c23)CCCC4)cc1` returned a half-inhibitory concentration (IC50) greater than 10 µM.

In turn, `C=CC(=O)N1CCc2c(sc3ncnc(N[C@@H](CO)c4ccccc4)c23)C1` registered an IC50 greater than 10 µM.

Compound `OC[C@@H](Nc1ncnc2sc3c(c12)CCNC3)c1ccccc1` returned a 50% inhibitory concentration (IC50) greater than 10 µM.

The next test addresses EGFR (human) (UniProt P00533). Conditions: hcc827.
As to `c1ccc(CNc2ncnc3sc4c(c23)CCCC4)cc1`, the half-inhibitory concentration (IC50) is greater than 10 µM.

The target in another test is EGFR (human), P00533 [WT].
Chain of EGFR (human), P00533 [WT] (P00533 whole entry, looked up): as the sequence (P00533 whole entry, looked up) above
Conditions: not given
Regarding `CN(C)C/C=C/C(=O)N1CCc2c(sc3ncnc(N[C@H](CO)c4ccccc4)c23)C1`, the IC50 is 0.007 µM and 0.006 µM.

With `c1ccc(CNc2ncnc3sc4c(c23)CCCC4)cc1`, the half-inhibitory concentration (IC50) turned out to be 2.6 µM.

In the case of `C[C@@H](Nc1ncnc2sc3c(c12)CCCC3)c1ccccc1`, the IC50 worked out at 3.24 µM.
